Results as given in PubChem BioAssay AID1918991 (Molecular Pharmacology Branch, DTP, NCI, 2023).
Several values for one entry are separate records, joined by “and”; a condition that tells them apart may be missing. Equal values may be shown once.

Test system: 186277-243-T-J2-PDC complex spheroid growth
Assay: Anticancer human tumor 186277-243-T-J2-PDC patient-derived colon adenocarcinoma cell line growth inhibition [AhR]
Conditions: for viability, T/C: stronger effect = lower value; active = viability on the fitted dose curve at most 10% of control; inactive = the rest
Method in brief: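 Agents were dosed in half-log steps down from roughly clinical Cmax, or from 10 microM where Cmax was unknown, alone and with AhR antagonists. Read-out: percent test/control growth of tumor spheroids containing HUVEC and MSC stromal cells.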

[1] = curve of first compound, second compound 0.1 µM
[2] = curve of first compound, second compound 0.316 µM
[3] = curve of first compound, second compound 1 µM
[4] = curve of first compound, second compound 3.16 µM
[5] = curve of first compound, second compound 10 µM
[6] = second compound 0.1 µM, first compound 0.0316 µM
[7] = second compound 0.1 µM, first compound 0.1 µM
[8] = second compound 0.1 µM, first compound 0.316 µM
[9] = second compound 0.1 µM, first compound 1 µM
[10] = second compound 0.1 µM, first compound 3.16 µM
[11] = second compound 0.1 µM, first compound 10 µM
[12] = second compound 0.316 µM, first compound 0.0316 µM
[13] = second compound 0.316 µM, first compound 0.1 µM
[14] = second compound 0.316 µM, first compound 0.316 µM
[15] = second compound 0.316 µM, first compound 1 µM
[16] = second compound 0.316 µM, first compound 3.16 µM
[17] = second compound 0.316 µM, first compound 10 µM
[18] = second compound 1 µM, first compound 0.0316 µM
[19] = second compound 1 µM, first compound 0.1 µM
[20] = second compound 1 µM, first compound 0.316 µM
[21] = second compound 1 µM, first compound 1 µM
[22] = second compound 1 µM, first compound 3.16 µM
[23] = second compound 1 µM, first compound 10 µM
[24] = second compound 3.16 µM, first compound 0.0316 µM
[25] = second compound 3.16 µM, first compound 0.1 µM
[26] = second compound 3.16 µM, first compound 0.316 µM
[27] = second compound 3.16 µM, first compound 1 µM
[28] = second compound 3.16 µM, first compound 3.16 µM
[29] = second compound 3.16 µM, first compound 10 µM
[30] = second compound 10 µM, first compound 0.0316 µM
[31] = second compound 10 µM, first compound 0.1 µM
[32] = second compound 10 µM, first compound 0.316 µM
[33] = second compound 10 µM, first compound 1 µM
[34] = second compound 10 µM, first compound 3.16 µM
[35] = second compound 10 µM, first compound 10 µM
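Also: spheroids exposed to compounds for seven days before the viability read.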
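For viability, T/C in this document: luminescent signal used as a stand-in for viable cell amount; 100% = DMSO vehicle control wells.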

COc1ccc([C@@H](O)c2cc(-c3ncnc4cc(N5CCOCC5)ccc34)c(F)cc2Cl)nn1 + Cc1cncc(-c2nc(NCCc3c[nH]c4ccccc34)c3ncn(C(C)C)c3n2)c1
< 31.6 nM: IC50 [5]
inactive: viability, T/C [6] 103% | viability, T/C [7] 102% | viability, T/C [8] 104% | viability, T/C [9] 116% | viability, T/C [10] 94.2% | viability, T/C [11] 66.2% | viability, T/C [12] 109% | viability, T/C [13] 102% | viability, T/C [14] 98.3% | viability, T/C [15] 104% | viability, T/C [16] 114% | viability, T/C [17] 64.4% | viability, T/C [18] 103% | viability, T/C [19] 103% | viability, T/C [20] 113% | viability, T/C [21] 113% | viability, T/C [22] 99.4% | viability, T/C [23] 68.7% | viability, T/C [24] 94% | viability, T/C [25] 107% | viability, T/C [26] 115% | viability, T/C [27] 106% | viability, T/C [28] 101% | viability, T/C [29] 55.7% | viability, T/C [30] 23.3% | viability, T/C [31] 21.7% | viability, T/C [32] 20.6% | viability, T/C [33] 26% | viability, T/C [34] 16.6% | viability, T/C [35] 13.2%
> 10000 nM: IC50 [1] | IC50 [2] | IC50 [3] | IC50 [4]

O=C(C=Cc1cccc(S(=O)(=O)Nc2ccccc2)c1)NO + Cc1ccccc1N=Nc1ccc(NC(=O)c2ccnn2C)c(C)c1
active: viability, T/C [11] 4.8% | viability, T/C [17] 4.82% | viability, T/C [23] 4.07% | viability, T/C [29] 3% | viability, T/C [35] 3.18%
1740 nM: IC50 [2]
inactive: viability, T/C [6] 114% | viability, T/C [7] 104% | viability, T/C [8] 96.2% | viability, T/C [9] 88.8% | viability, T/C [10] 25.4% | viability, T/C [12] 96.7% | viability, T/C [13] 114% | viability, T/C [14] 101% | viability, T/C [15] 74.7% | viability, T/C [16] 23.2% | viability, T/C [18] 104% | viability, T/C [19] 100% | viability, T/C [20] 108% | viability, T/C [21] 84.7% | viability, T/C [22] 22.3% | viability, T/C [24] 91.5% | viability, T/C [25] 114% | viability, T/C [26] 112% | viability, T/C [27] 74.5% | viability, T/C [28] 18.4% | viability, T/C [30] 89.8% | viability, T/C [31] 97.8% | viability, T/C [32] 96.5% | viability, T/C [33] 65% | viability, T/C [34] 18.8%
1470 nM: IC50 [5]
2020 nM: IC50 [1]
1900 nM: IC50 [3]
1660 nM: IC50 [4]

CC(C)CC(NC(=O)C(Cc1ccccc1)NC(=O)c1cnccn1)B(O)O (stereo not drawn) + Cc1cncc(-c2nc(NCCc3c[nH]c4ccccc34)c3ncn(C(C)C)c3n2)c1
16.4 nM: IC50 [3]
active: viability, T/C (second compound 0.1 µM, first compound 0.03 µM) 1.86% | viability, T/C (second compound 0.1 µM, first compound 0.0949 µM) 0.49% | viability, T/C (second compound 0.1 µM, first compound 0.3 µM) 0.14% | viability, T/C (second compound 0.316 µM, first compound 0.03 µM) 0.33% | viability, T/C (second compound 0.316 µM, first compound 0.0949 µM) 0.05% | viability, T/C (second compound 0.316 µM, first compound 0.3 µM) 0.12% | viability, T/C (second compound 1 µM, first compound 0.03 µM) 0.51% | viability, T/C (second compound 1 µM, first compound 0.0949 µM) 0.15% | viability, T/C (second compound 1 µM, first compound 0.3 µM) 0.11% | viability, T/C (second compound 3.16 µM, first compound 0.03 µM) 0.66% | viability, T/C (second compound 3.16 µM, first compound 0.0949 µM) 0.05% | viability, T/C (second compound 3.16 µM, first compound 0.3 µM) 0.13% | viability, T/C (second compound 10 µM, first compound 0.00949 µM) 1.63% | viability, T/C (second compound 10 µM, first compound 0.03 µM) 0.26% | viability, T/C (second compound 10 µM, first compound 0.0949 µM) 0.13% | viability, T/C (second compound 10 µM, first compound 0.3 µM) 0.2%
12.4 nM: IC50 [4]
15.8 nM: IC50 [1] | IC50 [2]
inactive: viability, T/C (second compound 0.1 µM, first compound 0.000949 µM) 103% | viability, T/C (second compound 0.1 µM, first compound 0.003 µM) 108% | viability, T/C (second compound 0.1 µM, first compound 0.00949 µM) 88.1% | viability, T/C (second compound 0.316 µM, first compound 0.000949 µM) 131% | viability, T/C (second compound 0.316 µM, first compound 0.003 µM) 120% | viability, T/C (second compound 0.316 µM, first compound 0.00949 µM) 89.1% | viability, T/C (second compound 1 µM, first compound 0.000949 µM) 97.3% | viability, T/C (second compound 1 µM, first compound 0.003 µM) 107% | viability, T/C (second compound 1 µM, first compound 0.00949 µM) 95.2% | viability, T/C (second compound 3.16 µM, first compound 0.000949 µM) 102% | viability, T/C (second compound 3.16 µM, first compound 0.003 µM) 116% | viability, T/C (second compound 3.16 µM, first compound 0.00949 µM) 65.1% | viability, T/C (second compound 10 µM, first compound 0.000949 µM) 44.9% | viability, T/C (second compound 10 µM, first compound 0.003 µM) 53.5%
< 0.949 nM: IC50 [5]

CC(C)CC(NC(=O)C(Cc1ccccc1)NC(=O)c1cnccn1)B(O)O (stereo not drawn)
14.2 nM and 15.6 nM and 5.49 nM: IC50 (curve of compound)
inactive: viability, T/C (compound 0.000949 µM) 106% and 98.7% and 108% | viability, T/C (compound 0.003 µM) 96.2% and 116% and 102%
active: viability, T/C (compound 0.03 µM) 0.39% and 1.22% and 0.15% | viability, T/C (compound 0.0949 µM) 0.17% and 1.7% and 0.16% | viability, T/C (compound 0.3 µM) 0.21% (2×) and 1.15%

CC[C@@]1(O)C(=O)OCc2c1cc1n(c2=O)Cc2cc3c(CN(C)C)c(O)ccc3nc2-1
inactive: viability, T/C (compound 0.000316 µM) 100% and 99.5% and 110% | viability, T/C (compound 0.001 µM) 94.2% and 104% and 99.4% | viability, T/C (compound 0.00316 µM) 104% and 95.7% and 114% | viability, T/C (compound 0.01 µM) 118% and 68.7% and 119% | viability, T/C (compound 0.0316 µM) 106% and 37% and 119% | viability, T/C (compound 0.1 µM) 65.8% and 19.4% and 111%
> 100 nM and 19.6 nM: IC50 (curve of compound)

CC(C)c1c(-c2ccccc2)nc2c(C#N)c[nH]n2c1=O + Cc1cncc(-c2nc(NCCc3c[nH]c4ccccc34)c3ncn(C(C)C)c3n2)c1
inactive: viability, T/C [6] 127% | viability, T/C [7] 105% | viability, T/C [8] 101% | viability, T/C [9] 98.3% | viability, T/C [10] 95.8% | viability, T/C [11] 96.5% | viability, T/C [12] 102% | viability, T/C [13] 99.6% | viability, T/C [14] 101% | viability, T/C [15] 98.8% | viability, T/C [16] 95% | viability, T/C [17] 108% | viability, T/C [18] 107% | viability, T/C [19] 101% | viability, T/C [20] 98.5% | viability, T/C [21] 103% | viability, T/C [22] 94.4% | viability, T/C [23] 102% | viability, T/C [24] 109% | viability, T/C [25] 111% | viability, T/C [26] 96.3% | viability, T/C [27] 96.1% | viability, T/C [28] 108% | viability, T/C [29] 102% | viability, T/C [30] 26% | viability, T/C [31] 22.7% | viability, T/C [32] 20.5% | viability, T/C [33] 25.6% | viability, T/C [34] 23.9% | viability, T/C [35] 34.4%
< 31.6 nM: IC50 [5]
> 10000 nM: IC50 [1] | IC50 [2] | IC50 [3] | IC50 [4]

CC1COCCN1c1cc(-c2ccnn2C)c2ccnc(-c3ccn[nH]3)c2n1 (stereo not drawn) + CC(CO)NC(=O)c1cc(-c2ccc(Cl)cc2)nn(-c2cnn(C)c2)c1=O
20.4 nM: IC50 [3]
active: viability, T/C [7] 7.53% | viability, T/C [8] 3.44% | viability, T/C [9] 2.42% | viability, T/C [13] 6.69% | viability, T/C [14] 2.84% | viability, T/C [15] 2.25% | viability, T/C [19] 6.17% | viability, T/C [20] 3.4% | viability, T/C [21] 2.51% | viability, T/C [25] 6.02% | viability, T/C [26] 3.47% | viability, T/C [27] 2.6% | viability, T/C [31] 6.38% | viability, T/C [32] 3.92% | viability, T/C [33] 2.78%
23.6 nM: IC50 [2]
24.3 nM: IC50 [1]
inactive: viability, T/C (second compound 0.1 µM, first compound 0.00316 µM) 100% | viability, T/C (second compound 0.1 µM, first compound 0.01 µM) 89.9% | viability, T/C [6] 38.1% | viability, T/C (second compound 0.316 µM, first compound 0.00316 µM) 91% | viability, T/C (second compound 0.316 µM, first compound 0.01 µM) 86.3% | viability, T/C [12] 37.5% | viability, T/C (second compound 1 µM, first compound 0.00316 µM) 103% | viability, T/C (second compound 1 µM, first compound 0.01 µM) 77% | viability, T/C [18] 34.2% | viability, T/C (second compound 3.16 µM, first compound 0.00316 µM) 82.3% | viability, T/C (second compound 3.16 µM, first compound 0.01 µM) 84.8% | viability, T/C [24] 24.2% | viability, T/C (second compound 10 µM, first compound 0.00316 µM) 79.3% | viability, T/C (second compound 10 µM, first compound 0.01 µM) 54.1% | viability, T/C [30] 18.2%
19.2 nM: IC50 [4]
11.4 nM: IC50 [5]
